Measured values taken from patent US20120016011A1, “RNA Interference Mediated Inhibition of Connective Tissue Growth Factor (CTGF) Gene Expression Using Short Interfering Nucleic Acid (siNA)” (Merck Sharp & Dohme Corp., priority 2009, published 2012).
[invAb] = inverted abasic unit; m = 2'-O-methyl; r = 2'-OH (RNA); f = 2'-fluoro

Legend:
CTGF mRNA [1] = experiment: CTGF mRNA knockdown (Taqman RT-PCR) after siNA transfection of mouse NIH 3T3 cells; type: cell-based; conditions: mouse NIH3T3 cells, 10 nM siNA, 24 hrs, average of 3 experiments, vs non-targeting control
Outline: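 Mouse NIH 3T3 cells, 5000/well, transfected 24 h after plating with siNA at 10 nM final using RNAiMax, 24 h exposure without media change. CTGF mRNA by TaqMan RT-qPCR with GAPDH, knockdown via comparative Ct (2^−ΔΔCt) against non-targeting control siNA.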

CTGF mRNA [2] = experiment: CTGF mRNA knockdown (Taqman RT-PCR) after siNA transfection of human NHLF cells; type: cell-based; conditions: 10 nM siNA, 24 hrs, average of 3 experiments, vs non-targeting control
Outline: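 Normal human lung fibroblasts (5000 cells/well) were transfected 24 h after plating with 10 nM siNA complexed with RNAiMax and harvested 24 h later without a media change. CTGF mRNA was measured by TaqMan RT-qPCR on Cells-to-CT lysates, with β-actin and GAPDH assayed alongside. Knockdown was calculated by comparative Ct (ΔΔCt) against non-targeting control siNA.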

## 48045-DC: siNA duplex; sense SEQ ID NO: 55 B cuGAcGGcGAGGucAuGAA TTB; antisense SEQ ID NO: 56 UUCAuGAccucGccGucAGUU (sense CUGACGGCGAGGUCAUGAATT; antisense UUCAUGACCUCGCCGUCAGUU; sense: DNA at AGT, 2'-fluoro at CU, [invAb] at 5' end, 3' end, backbone not given here; antisense: sugars from the 5' end rrrmfmmffffmffmffmmmm, backbone not given here)
CTGF mRNA [1]
  % KD Mouse: 19 ± 4%
CTGF mRNA [2]
  % KD Human: 18 ± 4%

## 48054-DC: siNA duplex; sense SEQ ID NO: 73 B GAcuuGAcAGuGGAAcuAc TTB; antisense SEQ ID NO: 74 GUAGuuccAcuGucAAGucUU (sense GACUUGACAGUGGAACUACTT; antisense GUAGUUCCACUGUCAAGUCUU; sense: DNA at AGT, 2'-fluoro at CU, [invAb] at 5' end, 3' end, backbone not given here; antisense: sugars from the 5' end rrrmffffmffmffmmmffmm, backbone not given here)
CTGF mRNA [1]
  % KD Mouse: 17 ± 3%
CTGF mRNA [2]
  % KD Human: 70 ± 5%

## 48076-DC: siNA duplex; sense SEQ ID NO: 117 B AcAGuAGcAcAuuAAuuuA TTB; antisense SEQ ID NO: 118 UAAAuuAAuGuGcuAcuGuUU (sense ACAGUAGCACAUUAAUUUATT; antisense UAAAUUAAUGUGCUACUGUUU; sense: DNA at AGT, 2'-fluoro at CU, [invAb] at 5' end, 3' end, backbone not given here; antisense: sugars from the 5' end rrrmffmmfmfmffmffmfmm, backbone not given here)
CTGF mRNA [1]
  % KD Mouse: 84 ± 1%
CTGF mRNA [2]
  % KD Human: −3 ± 1%

## 48057-DC: siNA duplex; sense SEQ ID NO: 79 B cuAuuuGAAGuGuAAuuGA TTB; antisense SEQ ID NO: 80 UCAAuuAcAcuucAAAuAGUU (sense CUAUUUGAAGUGUAAUUGATT; antisense UCAAUUACACUUCAAAUAGUU; sense: DNA at AGT, 2'-fluoro at CU, [invAb] at 5' end, 3' end, backbone not given here; antisense: sugars from the 5' end rrrmffmfmffffmmmfmmmm, backbone not given here)
CTGF mRNA [1]
  % KD Mouse: 26 ± 5%
CTGF mRNA [2]
  % KD Human: 80 ± 5%
